# Measured values as given in ChEMBL document CHEMBL1177644, “16-bromoepiandrosterone, an activator of the mammalian immune system, inhibits glucose 6-phosphate dehydrogenase from Trypanosoma cruzi and is toxic to these parasites grown in culture” (Bioorg Med Chem, 2010).
# What was measured:
# [1] = Inhibition of His-tagged Trypanosoma cruzi G6PDH expressed in Escherichia coli BL21 by spectrophotometry
# Trypanosoma cruzi = experiment: Antitrypanosomal activity against Trypanosoma cruzi Y epimastigotes assessed as viability after 72 hrs by MTS assay; format: functional; settings: read-out: LD50 (the source's name)
Compound,IC50 [1] [µM],LC50 (Trypanosoma cruzi) [µM]
C[C@]12CC[C@H](O)C[C@@H]1CC[C@@H]1[C@@H]2CC[C@]2(C)C(=O)[C@H](Br)C[C@@H]12 [16.ALPHA.-BROMOEPIANDROSTERONE],0.086,12.4
C[C@]12CC[C@H](O)CC1=CC[C@@H]1[C@@H]2CC[C@]2(C)C(=O)CC[C@@H]12 [PRASTERONE],25,–
C[C@]12CC[C@H](O)C[C@@H]1CC[C@@H]1[C@@H]2CC[C@]2(C)C(=O)CC[C@@H]12 [EPIANDROSTERONE],5.6,36.5
C[C@]12CC[C@H](O)CC1=CC[C@@H]1[C@@H]2CC[C@]2(C)C(=O)[C@H](Br)C[C@@H]12,0.216,20.6
